We go through two compounds from BindingDB's records for patent US20240173440 (Nuclidium, 2024).

The IC50 is the concentration at which inhibition is half-maximal. Low readings indicate greater potency in that assay, high ones weaker potency in that assay.

This experiment concerns the target T1, Prolyl endopeptidase FAP (Homo sapiens, UniProt Q12884).
T1 sequence (Q12884 whole entry): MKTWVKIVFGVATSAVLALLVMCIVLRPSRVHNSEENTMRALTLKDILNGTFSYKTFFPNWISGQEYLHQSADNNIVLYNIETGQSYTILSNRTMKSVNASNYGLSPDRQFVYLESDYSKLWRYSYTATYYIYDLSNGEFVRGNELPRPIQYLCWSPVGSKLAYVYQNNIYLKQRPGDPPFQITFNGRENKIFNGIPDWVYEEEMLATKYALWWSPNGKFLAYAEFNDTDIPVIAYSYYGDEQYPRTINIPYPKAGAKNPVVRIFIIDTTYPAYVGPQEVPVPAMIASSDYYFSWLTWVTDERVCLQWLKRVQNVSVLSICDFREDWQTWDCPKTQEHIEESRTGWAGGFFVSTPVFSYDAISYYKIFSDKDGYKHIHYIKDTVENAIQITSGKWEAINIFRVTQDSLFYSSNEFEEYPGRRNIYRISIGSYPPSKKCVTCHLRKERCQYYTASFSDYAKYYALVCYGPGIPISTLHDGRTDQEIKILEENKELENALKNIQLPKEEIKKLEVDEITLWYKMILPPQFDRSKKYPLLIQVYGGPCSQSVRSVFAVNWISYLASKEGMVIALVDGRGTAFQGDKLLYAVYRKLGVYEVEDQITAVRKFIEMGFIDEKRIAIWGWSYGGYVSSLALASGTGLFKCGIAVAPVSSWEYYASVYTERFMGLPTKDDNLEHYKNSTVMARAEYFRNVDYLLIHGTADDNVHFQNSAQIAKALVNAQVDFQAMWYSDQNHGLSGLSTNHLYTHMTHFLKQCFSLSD
Description: In Vitro hFAP Inhibition Assay. As to the method: FAPI-46 was used as positive control. Experiments were performed in triplicate, and the mean fluorescence values were fitted using Graph Pad Prism 9 (equation used: Y=Bottom+(Top−Bottom)/(1+((X^HillSlope)/(IC50^HillSlope)))).

SMILES strings stand for the structures.

Consider `CN(C(=O)CCC(=O)NCCNC(=O)CCC(C(=O)O)[N+]12CC[N+]34CC[N+]5(CC1)CC(=O)[O][Cu]352[O]C(=O)C4)c1ccc2nccc(C(=O)NCC(=O)N3CC(F)(F)C[C@H]3C#N)c2c1` (some centres not stated) [US20240173440, Compound [natCu]Cu-NODAGA-F2], for which inhibition was half-maximal at 0.12 nM (IC50). This counts as sub-nanomolar. As to `N#C[C@@H]1CC(F)(F)CN1C(=O)CNC(=O)c1ccnc2ccc(NC(=O)CCC(=O)N3CCN(C(=O)CCC(C(=O)O)[N+]45CC[N+]67CC[N+]8(CC4)CC(=O)[O][Cu]685[O]C(=O)C7)CC3)cc12` (some centres not stated) [US20240173440, Compound [natCu]Cu-NODAGA-F3], it took 0.04 nM to reach half-maximal inhibition (IC50).
